From patent US5847076A, “Regulators of the proteasome” (Board of Regents, The University of Texas System, priority 1993, dated 1998)
Read-outs that look alike come from different tables or passages of the source. Numbered stars: 1 amine (or outer) side, 2 acyl side, 3 side chain; on linkers, the order of the positions; unused ones are H or OH. Peptide text beside a SMILES is read from it. CO = O=C([*:1])[*:2]

How the values were obtained:
[1] = tested on: PA28-inactivating protein; experiment: Effect of protease inhibitors on PA28-inactivating activity; type: biochemical, bovine
Protocol: (§1) Assay for PA28-inactivating activity. The inactivation of PA28 was assessed by measuring residual PA28 activity after preincubation of purified PA28 with the inactivating protein. The preincubation contained purified bovine red blood cell PA28 (0.2 μg), 100 mM MES buffer, pH 5.2, 2 mM DTT, and inactivating protein or other factors, as described in this example, in a final volume of 15 μl. After preincubation at […] for 10 min., the reaction was stopped by addition of 1.0 ml of a solution containing 50 mM Trios-HCl, pH 8.0, 1 mM DTT, and 50 μM Suc-LeuLeu-Val-Tyr-AMC (or other proteasome substrate). […] The assays consisted of 50 mM MES buffer, pH 5.2, 1 mM DTT, 50 μM substrate, and 50 μl of column fractions in a final volume of 1.0 ml. Reactions were carried out at 30° C. and the release of free MNA (or other reporter group) was monitored directly by fluorescence. 1.0 unit of activity is defined as the increase in product concentration of 1.0 nM/min.

[2] = tested on: PA28-inactivating protein; experiment: Effect of protease inhibitors on peptidase activity (Z-Leu-Arg-MNA hydrolysis) of PA28-inactivating protein; type: biochemical, bovine
Protocol: as §1

20S proteasome = experiment: Assay for PA700 activity (ATP-dependent activation of proteasome); type: biochemical, bovine; conditions: for ability of nucleotide to promote proteasome activation by PA700: in place of ATP
Protocol: Assay for PA700 activity. PA700 activity was assayed by measuring the increase in proteasome hydrolysis of the synthetic peptide Suc-Leu-Leu-Val-Tyr-AMC after preincubation of the two components in the presence of ATP. The standard preincubation solution consisted of 45 mM Tris-HCl, pH 7.5, 5 mM DTT, 60 μM ATP, 500 μM MgCl2, 0.3 μg purified proteasome, PA700 as indicated in specific experiments, and any other component as specified, in a final volume of 50 μl. This solution was preincubated at 37° C. for 45 min. The preincubation was ended by the addition of 1.0 ml of a solution containing 50 mM Tris-HCl, pH 8.0, 1 mM DTT, and 50 μM Suc-Leu-Leu-Val-Tyr-AMC. The rate of hydrolysis of the substrate was determined directly by fluorescence as described previously. Routine control assays were conducted in parallel and consisted of the complete procedure but without PA700. […] PA700 activity is defined as the increase in proteasome activity between the two conditions.

[3] = tested on: PA28-inactivating protein; experiment: Hydrolysis of synthetic peptides and proteins by PA28-inactivating protein; type: biochemical, bovine; conditions: 0.05 μg enzyme, 50 μM substrate, 50 mM MES pH 5.2, 30° C.; 1.0 unit = 1.0 nM/min product
Protocol: as §1

[4] = tested on: T1, proteasome activation by PA28; experiment: Inhibition of PA28-activated proteasome by carboxy-terminal peptide; type: biochemical; conditions: kind of activity not specified further
T1 construct: from tissue
Protocol: Proteasome activity in the absence of PA28 was 1.2 units/assays. Assays contained 0.5 μg of proteasome and 1 μg of PA28.
Therefore, this peptide or a compound with similar properties may be used to block the action of the proteasome in intact cells. Such a compound or analogs having similar binding activity may be used to control accelerated rates of intracellular protein degradation. The peptide has the sequence: Acetyl-KNFEKLKKPRGETKGMIY (SEQ ID NO. 3). The N-terminal lysine may be acetylated if needed for stability. […] Therefore, the C-terminal Ile-Tyr amino acids or their functional equivalents appear to be important for binding of the 18-mer to the proteasome and for inhibition of the activation of the proteasome by activating factors PA28 and PA700. An equivalent of the 18-mer may comprise less than 18 amino acids or may comprise functionally equivalent amino acid replacements which allow similar binding activity.

PA28 = experiment: Assay for PA28-inactivating activity (residual PA28 activity after preincubation with peptidase); type: biochemical, bovine
Protocol: as §1

[5] = inhibitor 1 mM, preincubated 10 min at 30° C.
[6] = inhibitor 1 mM, preincubated 10 min at 30° C., Z-Leu-Arg-MNA
[7] = inhibitor 2 μM, preincubated 10 min at 30° C., Z-Leu-Arg-MNA

## O=c1oc(Cl)c(Cl)c2ccccc12 [3,4-Dichloroisocoumarin, 3,4-dichloroisocoumarin]
[1]; [5]
  PA28-Inactivating Activity (% Inhibition): 0 % Inhibition
[2]
  effect on the purified PA28-inactivating protein (PA28-inactivating activity and Z-Leu-Arg-MNA hydrolysis), in words: had no effect
[2]; [6]
  Peptidase Activity (% Inhibition): 0 % Inhibition

## Nc1ncnc2c1ncn2[C@@H]1O[C@H](COP(=O)(O)OP(=O)(O)O)[C@@H](O)[C@H]1O [ADP]
20S proteasome
  ability of nucleotide to promote proteasome activation by PA700: Neither ADP, AMP, adenosine, nor PPi promoted proteasome activation

## Nc1ncnc2c1ncn2[C@@H]1O[C@H](COP(=O)(O)O)[C@@H](O)[C@H]1O [AMP]
20S proteasome
  ability of nucleotide to promote proteasome activation by PA700: Neither ADP, AMP, adenosine, nor PPi promoted proteasome activation

## Nc1ncnc2c1ncn2[C@@H]1O[C@H](COP(=O)(O)OP(=O)(O)OP(=O)(O)O)[C@@H](O)[C@H]1O [ATP]
20S proteasome
  ATP concentration for maximal proteasome activation by PA700: approximately 60 μM

## NCCc1ccc(S(=O)(=O)F)cc1 [Aminoethylbenzenesulfonylfluoride, aminoethylbenzenesulfonylfluoride]
[1]; [5]
  PA28-Inactivating Activity (% Inhibition): 0 % Inhibition
[2]
  effect on the purified PA28-inactivating protein (PA28-inactivating activity and Z-Leu-Arg-MNA hydrolysis), in words: had no effect
[2]; [6]
  Peptidase Activity (% Inhibition): 0 % Inhibition

## CC(C)[C@H](NC(=O)[C@H](CCCNC(=N)N)NC(=O)N[C@@H](Cc1ccccc1)C(=O)O)C(=O)N[C@H](C=O)CCCNC(=N)N [Antipain] ({Phe-CO}-Arg-Val-Arg-aldehyde)
[1]; inhibitor 2 μM, preincubated 10 min at 30° C.
  PA28-Inactivating Activity (% Inhibition): 90 % Inhibition
[2]
  effect on the purified PA28-inactivating protein (PA28-inactivating activity and Z-Leu-Arg-MNA hydrolysis), in words: inhibited the PA28-inactivating protein at concentrations in the μM range
[2]; [7]
  Peptidase Activity (% Inhibition): 88 % Inhibition

## CC(C)C[C@H](NC(=O)[C@@H](O)[C@H](N)Cc1ccccc1)C(=O)O [Bestatin]
[2]; [7]
  Peptidase Activity (% Inhibition): 19 % Inhibition

## Nc1ccn([C@@H]2O[C@H](COP(=O)(O)OP(=O)(O)OP(=O)(O)O)[C@@H](O)[C@H]2O)c(=O)n1 [CTP]
20S proteasome; higher than ATP
  concentration required for proteasome activation by PA700 relative to ATP: 100 fold
20S proteasome
  ability of nucleotide to promote proteasome activation by PA700: could also activate the proteasome

## O=C(O)CI [Iodoacetate]
[1]
  effect on PA28-inactivating activity of bovine liver extract: inhibited
[1]; 10 min, 100 µM
  PA28-Inactivating Activity (% Inhibition): 93 % Inhibition
[2]
  effect on the purified PA28-inactivating protein (PA28-inactivating activity and Z-Leu-Arg-MNA hydrolysis), in words: inhibited each activity
[2]; 10 min, 100 µM
  Peptidase Activity (% Inhibition): 83 % Inhibition

## CC(=O)N[C@@H](CC(C)C)C(=O)N[C@@H](CC(C)C)C(=O)N[C@H](C=O)CCCNC(=N)N [Leupeptin]
[1]; inhibitor 1 μM, preincubated 10 min at 30° C.
  PA28-Inactivating Activity (% Inhibition): 100 % Inhibition
[1]; preliminary characterization, crude liver extract
  effect on PA28-inactivating activity of bovine liver extract: inhibited
[2]
  effect on the purified PA28-inactivating protein (PA28-inactivating activity and Z-Leu-Arg-MNA hydrolysis), in words: inhibited the PA28-inactivating protein at concentrations in the μM range
[2]; inhibitor 1 μM, preincubated 10 min at 30° C., Z-Leu-Arg-MNA
  Peptidase Activity (% Inhibition): 100 % Inhibition

## O=P(O)(O)OP(=O)(O)O [PPi]
20S proteasome
  ability of nucleotide to promote proteasome activation by PA700: Neither ADP, AMP, adenosine, nor PPi promoted proteasome activation

## COc1cc(NC(=O)[C@H](Cc2ccccc2)NC(=O)[C@H](CC(C)C)NC(=O)[C@H](Cc2ccccc2)NC(=O)CCC(=O)O)cc2ccccc12 [Suc--Phe--Leu--Phe--MNA]
[3]
  hydrolysis by PA28-inactivating protein: 0 UNITS/μg

## Cc1cc(=O)oc2cc(NC(=O)[C@H](Cc3ccc(O)cc3)NC(=O)CCC(=O)O)ccc12 [Suc--Tyr--AMC]
[3]
  hydrolysis by PA28-inactivating protein: 0 UNITS/μg

## Cc1ccc(S(=O)(=O)N[C@@H](CCCCN)C(=O)CCl)cc1 [TLCK]
[2]; 10 min, 50 µM
  Peptidase Activity (% Inhibition): 88 % Inhibition

## Cc1ccc(S(=O)(=O)N[C@@H](Cc2ccccc2)C(=O)CCl)cc1 [TPCK]
[1]; inhibitor 50 μM, preincubated 10 min at 30° C.
  PA28-Inactivating Activity (% Inhibition): 0 % Inhibition
[2]; inhibitor 50 μM, preincubated 10 min at 30° C., Z-Leu-Arg-MNA
  Peptidase Activity (% Inhibition): 0 % Inhibition

## COc1cc(NC(=O)[C@H](CCCNC(=N)N)NC(=O)OCc2ccccc2)cc2ccccc12 [Z--Arg--MNA]
[3]
  hydrolysis by PA28-inactivating protein: 0 UNITS/μg

## O=C(CNC(=O)OCc1ccccc1)NCC(=O)N[C@@H](Cc1ccccc1)C(=O)Nc1ccc2ccccc2c1 [Z--Gly--Gly--Phe--βNA] (HELM PEPTIDE1{[O=C(OCc1ccccc1)[*:2]].G.G.F.[c1ccc2cc(N[*:1])ccc2c1]}$$$$V2.0)
[3]
  hydrolysis by PA28-inactivating protein: 0 UNITS/μg

## COc1cc(NC(=O)[C@H](CCCNC(=N)N)NC(=O)[C@@H]2CCCN2C(=O)CNC(=O)OCc2ccccc2)cc2ccccc12 [Z--Gly--Pro--Arg--MNA]
[3]
  hydrolysis by PA28-inactivating protein: 13 UNITS/μg

## COc1cc(NC(=O)[C@H](CCCNC(=N)N)NC(=O)[C@H](CC(C)C)NC(=O)OCc2ccccc2)cc2ccccc12 [Z--Leu--Arg--MNA, Z-Leu-Arg-MNA]
[3]
  hydrolysis by PA28-inactivating protein: 98 UNITS/μg

## COc1cc(NC(=O)[C@H](CCCCN)NC(=O)[C@H](CC(C)C)NC(=O)[C@H](CC(C)C)NC(=O)OCc2ccccc2)cc2ccccc12 [Z--Leu--Leu--Lys--MNA]
[3]
  hydrolysis by PA28-inactivating protein: 19 UNITS/μg

## C[C@H](NC(=O)[C@H](Cc1ccccc1)NC(=O)OCc1ccccc1)C(=O)C=[N+]=[N-] [Z--Phe--Ala--CHN2]
[2]; inhibitor 15 μM, preincubated 10 min at 30° C., Z-Leu-Arg-MNA
  Peptidase Activity (% Inhibition): 85 % Inhibition

## COc1cc(NC(=O)[C@H](Cc2ccc(O)cc2)NC(=O)[C@H](CO)NC(=O)OCc2ccccc2)cc2ccccc12 [Z--Ser--Tyr--MNA]
[3]
  hydrolysis by PA28-inactivating protein: 0 UNITS/μg

## COc1cc(NC(=O)[C@H](CCCNC(=N)N)NC(=O)[C@H](CC(C)C)NC(=O)[C@@H](NC(=O)OCc2ccccc2)C(C)C)cc2ccccc12 [Z--Val--Leu--Arg--MNA, Z-Val-Leu-Arg-MNA]
[3]
  hydrolysis by PA28-inactivating protein: 28 UNITS/μg

## Nc1ncnc2c1ncn2[C@@H]1O[C@H](CO)[C@@H](O)[C@H]1O [adenosine]
20S proteasome
  ability of nucleotide to promote proteasome activation by PA700: Neither ADP, AMP, adenosine, nor PPi promoted proteasome activation

## Chymostatin
[2]
  effect on the purified PA28-inactivating protein (PA28-inactivating activity and Z-Leu-Arg-MNA hydrolysis), in words: inhibited the PA28-inactivating protein at concentrations in the μM range
[2]; inhibitor 5 μM, preincubated 10 min at 30° C., Z-Leu-Arg-MNA
  Peptidase Activity (% Inhibition): 83 % Inhibition

## Ile-Tyr
[4]
  activity of the dipeptide by itself: very weak activity

## trypsin
PA28
  effect of peptidase or protease on PA28 activity: rapidly inactivated PA28

B1: Carboxypeptidase Y: Carboxypeptidase Y from yeast (Boehringer, 1111914) (protein, UniProt P00729 112-532, looked up)
Carboxypeptidase Y: KIKDPKILGIDPNVTQYTGYLDVEDEDKHFFFWTFESRNDPAKDPVILWLNGGPGCSSLTGLFFELGPSSIGPDLKPIGNPYSWNSNATVIFLDQPVNVGFSYSGSSGVSNTVAAGKDVYNFLELFFDQFPEYVNKGQDFHIAGESYAGHYIPVFASEILSHKDRNFNLTSVLIGNGLTDPLTQYNYYEPMACGEGGEPSVLPSEECSAMEDSLERCLGLIESCYDSQSVWSCVPATIYCNNAQLAPYQRTGRNVYDIRKDCEGGNLCYPTLQDIDDYLNQDYVKEAVGAEVDHYESCNFDINRNFLFAGDWMKPYHTAVTDLLNQDLPILVYAGDKDFICNWLGNKAWTDVLPWKYDEEFASQKVRNWTASITDEVAGEVKSYKHFTYLRVFNGGHMVPFDVPENALSMVNEWIHGGFSL
PA28
  effect of peptidase or protease on PA28 activity: each inactivated PA28 without detectably altering its molecular weight on SDS-PAGE

B2: Carboxypeptidase B: Carboxypeptidase B from bovine pancreas (Sigma C7261) (protein, UniProt P00732 111-417, looked up)
Carboxypeptidase B: TTGHSYEKYNNWETIEAWTEQVASENPDLISRSAIGTTFLGNTIYLLKVGKPGSNKPAVFMDCGFHAREWISPAFCQWFVREAVRTYGREIHMTEFLDKLDFYVLPVVNIDGYIYTWTTNRMWRKTRSTRAGSSCTGTDLNRNFDAGWCSIGASNNPCSETYCGSAAESEKESKAVADFIRNHLSSIKAYLTIHSYSQMMLYPYSYDYKLPKNNVELNTLAKGAVKKLASLHGTTYTYGPGASTIYPASGGSDDWAYDQGIKYSFTFELRDKGRYGFVLPESQIQPTCEETMLAIKYVTSYVLEHLY
PA28
  effect of peptidase or protease on PA28 activity: each inactivated PA28 without detectably altering its molecular weight on SDS-PAGE
